This passage reports EC50 results from US20240327393A1 (SIRONAX LTD., priority 2021, published 2024).

By EC50 is commonly meant the concentration giving half of the maximal effect.

The assay has as its system HT-1080 (ATCC, CCL-121) cells. Briefly: HT-1080 cell viability assay with ferroptosis inducer RSL3 (Cell Titer-Glo). The format is cell-based. The following applies: Homo sapiens; HT-1080 cells treated with RSL3; 3-fold, 10-point dilution, 1.1 μM highest concentration; Table 2; read-out: EC50 (nM), ferroptosis inhibitory activity. The protocol:
Example 2. Determination of EC50 Values in HT-1080 Cell Viability Assay
HT-1080 (ATCC, CCL-121) cells (6000 in 100 μl) were seeded in 96-well plates (Corning) and cultured in a 37° C. incubator with a humidified atmosphere of 5% CO2 for overnight. Cells were then treated with ferroptosis inducer RSL3 (TargetMol) and a 3-fold, 10-point serial dilution series of compounds with 1.1 μM as the highest concentration, […]. Cell viability was assessed using the Cell Titer-Glo Kit (Promega). The luminescence intensity was measured with a microplate reader (Envision, PerkinElmer), and cell viability was calculated by normalizing the data to untreated controls. The EC50 values of the compounds (e.g., Compounds 1-659) were calculated in GraphPad Prism (GraphPad Software, Inc., San Diego, CA, USA). The curves were fitted using a non-linear regression model with a sigmoidal dose response.
`Cc1nc(N2CC(C)OC(C)C2)ccc1Nc1ccc2c(c1)OCC(=O)N2C` (stereo not shown) [Compound 69, 7-((6-(2,6-dimethylmorpholino)-2-methylpyridin-3-yl)amino)-4-methyl-2H-benzo[b][1,4]oxazin-3(4H)-one]: the EC50 fell in the range of 0.1 to 100 nM.

Take `COc1cc(Nc2ccc3c(c2)OCC(=O)N3C)ccc1N1CC(C)OC(C)C1` (stereo not shown) [Compound 70, 7-((4-(2,6-dimethylmorpholino)-3-methoxyphenyl)amino)-4-methyl-2H-benzo[b][1,4]oxazin-3(4H)-one]: the EC50 was in the range of 0.1 to 100 nM. For `CC1CN(c2ccc3cc(Nc4ccc5c(c4)OCC(=O)N5C)ccc3c2)CC(C)O1` (stereo not shown) [Compound 71, 7-((6-(2,6-dimethylmorpholino)naphthalen-2-yl)amino)-4-methyl-2H-benzo[b][1,4]oxazin-3(4H)-one], the concentration giving a half-maximal response (EC50) lay in the range of 0.1 to 100 nM. Under `CN1C(=O)COc2cc(Nc3ccc4cc(N5CCC(C(F)(F)F)CC5)ccc4c3)ccc21` [Compound 72, 4-methyl-7-((6-(4-(trifluoromethyl)piperidin-1-yl)naphthalen-2-yl)amino)-2H-benzo[b][1,4]oxazin-3(4H)-one] stands 0.1 to 100 nM; under `CC1CN(c2ccc(Nc3ccc4c(c3)OCC(=O)N4C)cc2F)CC(C)O1` (stereo not shown) [Compound 73, 7-((4-(2,6-dimethylmorpholino)-3-fluorophenyl)amino)-4-methyl-2H-benzo[b][1,4]oxazin-3(4H)-one], 0.1 to 100 nM; under `CC1CN(c2ccc(Nc3ccc4c(c3)OCC(=O)N4C)c(F)c2)CC(C)O1` (stereo not shown) [Compound 74, 7-((4-(2,6-dimethylmorpholino)-2-fluorophenyl)amino)-4-methyl-2H-benzo[b][1,4]oxazin-3(4H)-one], 0.1 to 100 nM. For the compound `CN1C(=O)COc2cc(Nc3ccc(N4CCC(C(F)(F)F)CC4)cc3)cnc21` [Compound 75, 4-methyl-7-((4-(4-(trifluoromethyl)piperidin-1-yl)phenyl)amino)-2H-pyrido[3,2-b][1,4]oxazin-3(4H)-one], the EC50 lay within 0.1 to 100 nM. Turning to `CC1CN(c2ccc(Nc3cnc4c(c3)OCC(=O)N4C)cc2)CC(C)O1` (stereo not shown) [Compound 76, 7-((4-(2,6-dimethylmorpholino)phenyl)amino)-4-methyl-2H-pyrido[3,2-b][1,4]oxazin-3(4H)-one], the EC50 is 0.1 to 100 nM. `CN1C(=O)COc2cc(Nc3ccc(N4CCC(C(F)(F)F)CC4)c(F)c3)ccc21` [Compound 77, 7-((3-fluoro-4-(4-(trifluoromethyl)piperidin-1-yl)phenyl)amino)-4-methyl-2H-benzo[b][1,4]oxazin-3(4H)-one]: the concentration giving a half-maximal response (EC50) lay in the range of 0.1 to 100 nM.

Take `Cc1cc(N2CCC(C(F)(F)F)CC2)ccc1Nc1ccc2c(c1)OCC(=O)N2C` [Compound 78, 4-methyl-7-((2-methyl-4-(4-(trifluoromethyl)piperidin-1-yl)phenyl)amino)-2H-benzo[b][1,4]oxazin-3(4H)-one]: the EC50 was 0.1 to 100 nM.

Take `Cc1cc(N2CCC(C(F)(F)F)CC2)cc(C)c1Nc1ccc2c(c1)OCC(=O)N2C` [Compound 79, 7-((2,6-dimethyl-4-(4-(trifluoromethyl)piperidin-1-yl)phenyl)amino)-4-methyl-2H-benzo[b][1,4]oxazin-3(4H)-one]: the EC50 was 0.1 to 100 nM.

Turning to `CC1CN(c2ccc(Nc3ccc4c(c3)OCC(=O)N4CCN(C)C)cc2)CC(C)O1` (stereo not shown) [Compound 80, 4-(2-(dimethylamino)ethyl)-7-((4-(2,6-dimethylmorpholino)phenyl)amino)-2H-benzo[b][1,4]oxazin-3(4H)-one], the EC50 was in the range of 0.1 to 100 nM. Under `CCC1Oc2cc(Nc3ccc(N4CC(C)OC(C)C4)cc3)ccc2N(C)C1=O` (stereo not shown) [Compound 81, 7-((4-(2,6-dimethylmorpholino)phenyl)amino)-2-ethyl-4-methyl-2H-benzo[b][1,4]oxazin-3(4H)-one] stands 0.1 to 100 nM; under `CC(C)(C)c1ccc(Nc2ccc3c(c2)OCC(=O)N3CCO)cc1` [Compound 82, 7-((4-(tert-butyl)phenyl)amino)-4-(2-hydroxyethyl)-2H-benzo[b][1,4]oxazin-3(4H)-one], 0.1 to 100 nM. Consider `O=C1COc2cc(Nc3ccc(N4CCC(C(F)(F)F)CC4)cc3)ccc2N1CCO` [Compound 83], for which the concentration for a half-maximal effect (EC50) lay in the range of 0.1 to 100 nM. Regarding `CC1CN(c2ccc(Nc3ccc4c(c3)OCC(=O)N4CCO)cc2)CC(C)O1` (stereo not shown) [Compound 84, 7-((4-(2,6-dimethylmorpholino)phenyl)amino)-4-(2-hydroxyethyl)-2H-benzo[b][1,4]oxazin-3(4H)-one], the EC50 is 0.1 to 100 nM. To `O=C1COc2cc(Nc3ccc(N4CCC(C(F)(F)F)CC4)cc3)ccc2N1` [Compound 85, 7-((4-(4-(trifluoromethyl)piperidin-1-yl)phenyl)amino)-2H-benzo[b][1,4]oxazin-3(4H)-one] belongs 0.1 to 100 nM; to `Cc1cc(Nc2ccc3c(c2)OCC(=O)N3C)ccc1N1CCC(C(F)(F)F)CC1` [Compound 86, 4-methyl-7-((3-methyl-4-(4-(trifluoromethyl)piperidin-1-yl)phenyl)amino)-2H-benzo[b][1,4]oxazin-3(4H)-one], 0.1 to 100 nM. For the compound `CC1CN(c2ccc(Nc3cc(F)c4c(c3)OCC(=O)N4C)cc2)CC(C)O1` (stereo not shown) [Compound 87, 7-((4-(2,6-dimethylmorpholino)phenyl)amino)-5-fluoro-4-methyl-2H-benzo[b][1,4]oxazin-3(4H)-one], the half-maximal effective concentration (EC50) was in the range of 0.1 to 100 nM. Take `CN1C(=O)COc2cc(Nc3ccc(N4CCC(C(F)(F)F)CC4)cc3)cc(F)c21` [Compound 88, 5-fluoro-4-methyl-7-((4-(4-(trifluoromethyl)piperidin-1-yl)phenyl)amino)-2H-benzo[b][1,4]oxazin-3(4H)-one]: the concentration for a half-maximal effect (EC50) was in the range of 0.1 to 100 nM. On to `CN1C(=O)COc2cc(Nc3ccc(N4CC5CCC(C4)O5)c(F)c3)ccc21` [Compound 89, 7-((4-(8-oxa-3-azabicyclo[3.2.1]octan-3-yl)-3-fluorophenyl)amino)-4-methyl-2H-benzo[b][1,4]oxazin-3(4H)-one], for which the EC50 lay in the range of 0.1 to 100 nM. As for `COc1cc(N2CCC(C(F)(F)F)CC2)ccc1Nc1ccc2c(c1)OCC(=O)N2C` [Compound 90, 7-((2-methoxy-4-(4-(trifluoromethyl)piperidin-1-yl)phenyl)amino)-4-methyl-2H-benzo[b][1,4]oxazin-3(4H)-one], the 50% effective concentration (EC50) lay in the range of 0.1 to 100 nM. For `COc1cc(Nc2ccc3c(c2)OCC(=O)N3C)ccc1N1CCC(C(F)(F)F)CC1` [Compound 91, 7-((3-methoxy-4-(4-(trifluoromethyl)piperidin-1-yl)phenyl)amino)-4-methyl-2H-benzo[b][1,4]oxazin-3(4H)-one], the EC50 was in the range of 0.1 to 100 nM. `CC1CC(c2ccc(Nc3ccc4c(c3)OCC(=O)N4)cc2)CC(C)O1` (stereo not shown) [Compound 92, 7-((4-(2,6-dimethyltetrahydro-2H-pyran-4-yl)phenyl)amino)-2H-benzo[b][1,4]oxazin-3(4H)-one]: the EC50 lay within 0.1 to 100 nM.

Consider `CN1C(=O)COc2cc(Nc3ccc(N4CC(C)(C)OC(C)(C)C4)cc3)ccc21` [Compound 93, 4-methyl-7-((4-(2,2,6,6-tetramethylmorpholino)phenyl)amino)-2H-benzo[b][1,4]oxazin-3(4H)-one], for which the concentration giving a half-maximal response (EC50) lay in the range of 0.1 to 100 nM.

Consider `CN(C)CCN1C(=O)COc2cc(Nc3ccc(N4CCC(C(F)(F)F)CC4)cc3)ccc21` [Compound 94, 4-(2-(dimethylamino)ethyl)-7-((4-(4-(trifluoromethyl)piperidin-1-yl)phenyl)amino)-2H-benzo[b][1,4]oxazin-3(4H)-one], for which the EC50 is 0.1 to 100 nM.

Consider `COCCN1C(=O)COc2cc(Nc3ccc(N4CC(C)OC(C)C4)cc3)ccc21` (stereo not shown) [Compound 95, 7-((4-(2,6-dimethylmorpholino)phenyl)amino)-4-(2-methoxyethyl)-2H-benzo[b][1,4]oxazin-3(4H)-one], for which the EC50 is 0.1 to 100 nM. As to `Cc1cc(N2CC(C)OC(C)C2)ccc1Nc1ccc2c(c1)OCC(=O)N2` (stereo not shown) [Compound 96], the concentration giving a half-maximal response (EC50) fell in the range of 0.1 to 100 nM. For `CN1C(=O)COc2cc(Nc3ccc(N4C[C@@H]5C[C@H]4CO5)c(F)c3)ccc21` [Compound 97, 7-((4-((1S,4S)-2-oxa-5-azabicyclo[2.2.1]heptan-5-yl)-3-fluorophenyl)amino)-4-methyl-2H-benzo[b][1,4]oxazin-3(4H)-one], the EC50 was 0.1 to 100 nM. Under `CN1C(=O)COc2cc(Nc3ccc(N4CC5CCC4CO5)c(F)c3)ccc21` (stereo not shown) [Compound 98, 7-((4-(2-oxa-5-azabicyclo[2.2.2]octan-5-yl)-3-fluorophenyl)amino)-4-methyl-2H-benzo[b][1,4]oxazin-3(4H)-one] stands 0.1 to 100 nM; under `CN1C(=O)COc2cc(Nc3ccc(N4CC5CC(C4)O5)c(F)c3)ccc21` [Compound 99, 7-((4-(6-oxa-3-azabicyclo[3.1.1]heptan-3-yl)-3-fluorophenyl)amino)-4-methyl-2H-benzo[b][1,4]oxazin-3(4H)-one], 0.1 to 100 nM; under `Cc1cc(N2CCC(C(F)(F)F)CC2)ccc1Nc1ccc2c(c1)OCC(=O)N2` [Compound 100, 7-((2-methyl-4-(4-(trifluoromethyl)piperidin-1-yl)phenyl)amino)-2H-benzo[b][1,4]oxazin-3(4H)-one], 0.1 to 100 nM.

As to `Cc1cc(Nc2ccc3c(c2)OCC(=O)N3)ccc1N1CCC(C(F)(F)F)CC1` [Compound 101, 7-((3-methyl-4-(4-(trifluoromethyl)piperidin-1-yl)phenyl)amino)-2H-benzo[b][1,4]oxazin-3(4H)-one], the EC50 was in the range of 100 to 1000 nM.

Take `CC1CCN(c2ccc(Nc3ccc4c(c3)N(C)CC(=O)N4C)cc2)CC1` [Compound 102, 1,4-dimethyl-6-((4-(4-methylpiperidin-1-yl)phenyl)amino)-3,4-dihydroquinoxalin-2(1H)-one]: the concentration for a half-maximal effect (EC50) was 0.1 to 100 nM.
